The text below walks through data of patent publication US10774046B2, “Inhibitors for the treatment of cancer and related methods” (UNIVERSITY OF LOUISVILLE RESEARCH FOUNDATION, INC., priority 2017, dated 2020).

A short description of data set [1]: oral and intravenous pharmacokinetic properties. Type of data set: in vivo. Conditions: CD-1 mice (N=3).
The test system of another data set is cancer cells. The experiment in a line: F26BP measurement in cells. Type of data set: cell-based. Conditions: increasing concentrations. The protocol: Method: In order to measure F26BP, cells were exposed to increasing concentrations of Formula (VIII) and were harvested, washed with PBS, lysed in NaOH/Tris acetate by heating at 80° C. and lysates neutralized to pH 7.2. F26BP content was measured using a coupled enzyme reaction following a modified method of Van Schaftingen (VAN SCHAFTINGEN et al, “A kinetic study of pyrophosphate:fructose-6-phosphate phosphotransferase from potato tubers. Application to a microassay of fructose 2,6-bisphosphate” Eur J Biochem. (1982) Vol. 129, No. 1, pp. 191-195), which is herein incorporated by reference in its entirety. The F26BP concentration was normalized to total cellular protein measured by the bicinchoninic acid assay (BCA, Thermo Scientific).

For another data set, the system named is human cancer cell lines. The experiment in a line: proliferation, viable cell count by trypan blue exclusion. Conditions: counts at 48 hours shown. Type of data set: cell-based. The procedure:
Method: Cells were plated in 24 well plates and exposed to increasing concentrations of Formula (VIII). DMSO was used as a vehicle. After 24, 48 and 72 hours of exposure, cells were detached, and viable cells were counted by Trypan blue exclusion (representative counts at 48 hours shown).

The next data set concerns hT/LT/Ras cells. Kind of data set: cell growth of transformed cells, live cell count. To be noted: live cells at 48 hours. Type of data set: cell-based, human. An excerpt:
H460, H1299, H441, H522 and A549 non-small cell lung cancer (NSCLC), MDA-MB-231 (breast), LNCaP (prostatic) and HCT116 (colon) adenocarcinoma and Lewis lung carcinoma (LLC) cell lines were obtained from ATCC and used within 6 months of acquisition. PFKFB4^−/− ear pinna fibroblasts isolated from TamCre/loxP/PFKFB4^−/− mice were immortalized as described previously (Chesney J et al. Fructose-2,6-bisphosphate synthesis by 6-phosphofructo-2-kinase/fructose-2,6-bisphosphatase 4 (PFKFB4) is required for the glycolytic response to hypoxia and tumor growth. Oncotarget 2014 Aug. 30; 5(16):6670-86). Normal bronchial epithelial cells (NHBE) were obtained from Lonza and NHBE cells expressing telomerase, SV40 large T antigen and activated Ras (hT/LT/Ras) were a gift from Dr. B. J. Rollins, Dana Farber Cancer Institute. All cell lines were tested and found negative for mycoplasma (PCR Mycoplasma Detection Kit, ABM). Cell lines were grown in DMEM (A549, LNCaP, MDA-MB-231, LLC and PFKFB4^−/−), RPMI 1640 (H460, H1299, H441, H522) and McCoy's 5A media (HCT116) (all from Invitrogen) containing 10% fetal calf serum (Hyclone). […]
(§1) Cells were incubated in 20% trypan blue (Sigma) for 5 minutes. Cells excluding trypan blue were counted using a standard hemocytometer (Hausser Scientific) to determine total numbers of viable cells. Data are expressed as mean±SD of three experiments.

The next data set relates to A549. The experiment in a line: proliferation, viable cell count. Type of data set: cell-based, human. To be noted: A549, over 48 hours.
Description: (§2) H460, H1299, H441, H522 and A549 non-small cell lung cancer (NSCLC), MDA-MB-231 (breast), LNCaP (prostatic) and HCT116 (colon) adenocarcinoma and Lewis lung carcinoma (LLC) cell lines were obtained from ATCC and used within 6 months of acquisition. PFKFB4^−/− ear pinna fibroblasts isolated from TamCre/loxP/PFKFB4^−/− mice were immortalized as described previously (Chesney J et al. Fructose-2,6-bisphosphate synthesis by 6-phosphofructo-2-kinase/fructose-2,6-bisphosphatase 4 (PFKFB4) is required for the glycolytic response to hypoxia and tumor growth. Oncotarget 2014 Aug. 30; 5(16):6670-86). Normal bronchial epithelial cells (NHBE) were obtained from Lonza and NHBE cells expressing telomerase, SV40 large T antigen and activated Ras (hT/LT/Ras) were a gift from Dr. B. J. Rollins, Dana Farber Cancer Institute. All cell lines were tested and found negative for mycoplasma (PCR Mycoplasma Detection Kit, ABM). Cell lines were grown in DMEM (A549, LNCaP, MDA-MB-231, LLC and PFKFB4^−/−), RPMI 1640 (H460, H1299, H441, H522) and McCoy's 5A media (HCT116) (all from Invitrogen) containing 10% fetal calf serum (Hyclone). NHBE and hT/LT/Ras cells were grown in BEGM containing SingleQuots (Lonza). All lines were cultured at 37° C. in 5% CO2. In certain experiments, 4-hydroxytamoxifen (4HT, Sigma-Aldrich) was added to PFKFB4^−/− fibroblasts at indicated concentrations.
as §1

In another data set the test system is MDA-MB-231. The experiment in a line: proliferation, viable cell count. Type of data set: cell-based, human. Conditions: MDA-MB-231, over 48 hours.
Description: as §2, §1

A further data set deals with LNCaP. Kind of data set: proliferation, viable cell count. Type of data set: cell-based, human. Conditions: over 48 hours.
Description: as §2, §1

The test system of another data set is H1299. The experiment in a line: proliferation, viable cell count. Type of data set: cell-based, human. To be noted: H1299, over 48 hours.
Description: as §2, §1

Another data set deals with H441. Kind of data set: proliferation, viable cell count. Type of data set: cell-based, human. Conditions: H441, over 48 hours.
Description: as §2, §1

The test system of the next data set is HCT116. The experiment in a line: proliferation, viable cell count. Type of data set: cell-based, human. Conditions: HCT116, over 48 hours.
Description: as §2, §1

Another data set relates to H522. The experiment in a line: proliferation, viable cell count. Type of data set: cell-based, human. Conditions: H522, over 48 hours.
Description: as §2, §1

The test system of a further data set is H460 cells. Kind of data set: proliferation, viable cell count by trypan blue exclusion. Type of data set: cell-based, human. The protocol: as §1
H460 non-small cell lung cancer cells were plated in 24 well plates and exposed to increasing concentrations of the indicated inhibitors of Formula IV (FBR1-02 corresponds to
DMSO was used as vehicle. After 24, 48 and 72 hours of exposure, cells were detached and viable cells were counted by Trypan blue exclusion (representative counts at 48 hours shown).
Method: H460 cells were plated in 24 well plates and exposed to increasing concentrations of FB4-31 to FB4-36 and 5MPN. DMSO was used as a vehicle. After 24, 48 and 72 hours of exposure, cells were detached, and viable cells were counted by Trypan blue exclusion (representative counts at 72 hours shown).

The subject of data set [2] is panel of 97 protein kinases. Kind of data set: KINOMEscan active-site dependent competition binding assay. Conditions: 10 μM; data not shown. The procedure:
The fructose-6-phosphate kinase activity of human recombinant PFKFB4 in the presence of DMSO±indicated 5MPN concentrations was assayed as previously described. The activity of 5MPN against 97 kinases was examined using a commercially available active-site dependent competition binding assay core service (KINOMEscanEDGE) that quantifies the capacity of test agents to compete with an immobilized, active-site directed ligand using a DNA-tagged kinase and immobilized ligand and compound. For example, enzyme inhibition was studied using an ADP-Glo assay. The effect of MPN-2 on the activity of recombinant human PFKFB4 enzyme was examined in an ADP-Glo assay (Promega), which measures ADP formed from a kinase reaction. ADP is converted into ATP, which is converted into light by a luciferase. PFKFB4 protein was exposed to MPN-2 at indicated concentrations in the presence of ATP and fructose-6-phosphate and following manufacturer's instructions, ADP-Glo and kinase detections reagents were added. The data are shown as the decrease in luminescence caused by MPN-2 relative to DMSO.

Consider “5-[(8-methoxy-2-methylquinolin-1-ium-4-yl)amino]pentyl nitrate [MPN-2]”, for which, in data set [1], the intravenous bioavailability result is listed as “exhibits intravenous bioavailability” and the oral bioavailability entry is given as “has oral bioavailability”.

`COc1cccc2c(NCCCCCNC(=O)C(F)(F)F)ccnc12` [Formula (VIII), 2,2,2-trifluoro-N-(5-((8-methoxyquinolin-4-yl)amino)pentyl)acetamide]: the “F26BP (normalized to cellular protein)” value in the data set on cancer cells is reported as “dose-dependent decrease”. Also, the “proliferation (cell counts relative to DMSO)” value in the data set on human cancer cell lines was “decreases the proliferation of human cancer cell lines in vitro with higher potency than 5MPN”.

On to `COc1cccc2c(NCCCCCO[N+](=O)[O-])ccnc12` [5MPN, 5-[(8-methoxyquinolin-4-yl)amino]pentyl nitrate], for which the “cell growth of transformed cells” value with hT/LT/Ras cells is given as “suppressed”. Moreover, the growth result in the data set on A549, in the data set with MDA-MB-231, in the data set on LNCaP, with H1299, with H441 and with HCT116 was “dose-dependent reduction in growth” each time. Further, the growth entry in the data set on H522 is given as “dose-dependent reduction in growth”; in the data set on H460 cells (H460, over 48 hours), “dose-dependent reduction in growth”. For the same compound, the cell proliferation entry with H460 cells (H460, 24-72 hours) is recorded as “reduction in cell proliferation”. The “effect of overexpression of PFKFB4 on anti-proliferative effect” value with H460 cells (H460 transfected with PFKFB4, 10 μM 5MPN, 24 hours) is recorded as “protected”. The “inhibition of a panel of 97 protein kinases” value in [2] is “not inhibited”.
